Measurements from ChEMBL document CHEMBL1127822, “6-Alkyl- and 6-arylandrost-4-ene-3,17-diones as aromatase inhibitors. Synthesis and structure-activity relationships” (J Med Chem, 1994).

Tests used:
Aromatase [1] = biological target: T1, Aromatase (Homo sapiens, UniProt P11511); assay: Binding affinity for human placental microsome aromatase Cytochrome P450 19A1
T1 sequence (P11511 whole entry): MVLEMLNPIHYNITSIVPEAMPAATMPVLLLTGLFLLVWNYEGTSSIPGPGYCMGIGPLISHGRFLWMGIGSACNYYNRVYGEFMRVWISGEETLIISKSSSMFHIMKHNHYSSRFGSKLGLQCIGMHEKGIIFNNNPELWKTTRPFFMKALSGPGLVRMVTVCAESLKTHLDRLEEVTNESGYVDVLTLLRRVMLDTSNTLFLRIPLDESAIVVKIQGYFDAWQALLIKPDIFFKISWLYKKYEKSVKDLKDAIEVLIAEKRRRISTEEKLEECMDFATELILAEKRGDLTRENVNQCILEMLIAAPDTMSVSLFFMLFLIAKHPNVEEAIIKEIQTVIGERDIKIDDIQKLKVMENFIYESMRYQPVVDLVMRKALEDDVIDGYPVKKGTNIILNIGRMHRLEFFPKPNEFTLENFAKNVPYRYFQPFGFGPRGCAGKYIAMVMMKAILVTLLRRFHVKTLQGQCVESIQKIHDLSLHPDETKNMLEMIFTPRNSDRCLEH

Aromatase [2] = biological target: T1, Aromatase; assay: Inhibitory concentration was tested on Cytochrome P450 19A1 in human placental microsomes 20 (microg) of protein incubated for 20 min; set-up: species or system Placenta
Aromatase [3] = biological target: T1, Aromatase; assay: Binding affinity for human placental microsome Cytochrome P450 19A1

SMILES	Ki (Aromatase [1]) [nM]	IC50 (Aromatase [2]) [nM]	Ki (Aromatase [3]) [nM]
CC(C)[C@@H]1CC2C3CCC(=O)C3(C)CCC2C2(C)CCC(=O)C=C12 (some centres not stated)	22	1100	–
CCC[C@H]1CC2C3CCC(=O)C3(C)CCC2C2(C)CCC(=O)C=C12 (some centres not stated)	6.7	390	–
CC12CCC3C(C[C@@H](Cc4ccccc4)C4=CC(=O)CCC43C)C1CCC2=O (some centres not stated)	63	4000	–
C#C[C@@H]1CC2C3CCC(=O)C3(C)CCC2C2(C)CCC(=O)C=C12 (some centres not stated)	–	1900	62
CCCC[C@H]1CC2C3CCC(=O)C3(C)CCC2C2(C)CCC(=O)C=C12 (some centres not stated)	12	790	–
C[C@@H]1CC2C3CCC(=O)C3(C)CCC2C2(C)CCC(=O)C=C12 (some centres not stated)	–	720	11
C=C[C@@H]1CC2C3CCC(=O)C3(C)CCC2C2(C)CCC(=O)C=C12 (some centres not stated)	5.1	320	–
CC[C@H]1CC2C3CCC(=O)C3(C)CCC2C2(C)CCC(=O)C=C12 (some centres not stated)	–	260	4.7
CC(C)[C@H]1CC2C3CCC(=O)C3(C)CCC2C2(C)CCC(=O)C=C12 (some centres not stated)	31	1400	–
CCCC[C@@H]1CC2C3CCC(=O)C3(C)CCC2C2(C)CCC(=O)C=C12 (some centres not stated)	–	510	8.8
CC12CCC3C(C[C@@H](c4ccccc4)C4=CC(=O)CCC43C)C1CCC2=O (some centres not stated)	–	1700	37
CC12CCC3C(C[C@H](c4ccccc4)C4=CC(=O)CCC43C)C1CCC2=O (some centres not stated)	21	1100	–
CCC[C@@H]1CC2C3CCC(=O)C3(C)CCC2C2(C)CCC(=O)C=C12 (some centres not stated)	–	240	4.6
CC[C@@H]1CC2C3CCC(=O)C3(C)CCC2C2(C)CCC(=O)C=C12 (some centres not stated)	–	140	1.4
C[C@H]1CC2C3CCC(=O)C3(C)CCC2C2(C)CCC(=O)C=C12 (some centres not stated)	–	350	5.6
CC12CCC3C(C[C@H](Cc4ccccc4)C4=CC(=O)CCC43C)C1CCC2=O (some centres not stated)	10	660	–
